One assay concerns PDE4. In words: Evaluation of PDE4 inhibitory activity, scintillation proximity assay. Type of assay: biochemical. The conditions noted are these: scintillation proximity assay; class symbols of Evaluation 1; read-out: PDE4 Inhibitory Activity (concentration for the inhibition rate of 50%, IC50), Evaluation 1. In short, it runs like this:
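SPA with [2,8-3H]-cAMP and diluted PDE4 enzyme preparation in 50 mM Tris-HCl pH 7.4, 8.3 mM MgCl2, 1.7 mM EGTA, 3 mg/mL BSA, 120 min at room temperature. Product captured on ZnSO4-containing YSi-SPA beads, scintillation counted; IC50 from inhibition curves vs DMSO control and no-enzyme blank.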
(In general: In a scintillation proximity assay essentially only radioactivity close to the scintillant gives light.)
On to `COC(c1cc(-c2nccs2)c2oc(N3CC4CCC(C3)N4)nc2c1)C(F)(F)F` (stereo not shown) [Example 142, 2-(3,8-Diazabicyclo[3.2.1]octan-3-yl)-7-(thiazol-2-yl)-5-(2,2,2-trifluoro-1-methoxyethyl)benzo[d]oxazole], for which the IC50 was below 100 nM.

For the compound `CCOC(=O)c1ccc(-c2nccs2)c2oc(N3CC4CCCC(C3)N4)nc12` [Example 114, Ethyl 2-(3,9-diazabicyclo[3.3.1]nonan-3-yl)-7-(thiazol-2-yl)benzo[d]oxazole-4-carboxylate], the IC50 is below 100 nM.

Turning to `OC(O)(c1cc(-c2nccs2)c2oc(N3CC4CCCC(C3)N4)nc2c1)C(F)(F)F` [Example 156, 1-(2-(3,9-Diazabicyclo[3.3.1]nonan-3-yl)-7-(thiazol-2-yl)benzo[d]oxazol-5-yl)-2,2,2-trifluoroethane-1,1-diol], the IC50 was below 100 nM.

Regarding `C[S+]([O-])c1cc(-c2nccs2)c2oc(N3CC4CC(C3)N4)nc2c1` (stereo not shown) [Example 43, 2-(3,6-Diazabicyclo[3.1.1]heptan-3-yl)-5-(methylsulfinyl)-7-(thiazol-2-yl)benzo[d]oxazole], the IC50 is below 100 nM.

In the case of `COC(c1cc(-c2nccs2)c2oc(N3CC4CCC(C3)N4)nc2c1)C(F)F` (stereo not shown) [Example 105, 2-(3,8-Diazabicyclo[3.2.1]octan-3-yl)-5-(2,2-difluoro-1-methoxyethyl)-7-(thiazol-2-yl)benzo[d]oxazole], the IC50 was below 100 nM.

For the compound `CC(C)(O)c1cc(-c2nccs2)c2oc(N3CC4CC(C3)N4)nc2c1` [Example 173, 2-(2-(3,6-Diazabicyclo[3.1.1]heptan-3-yl)-7-(thiazol-2-yl)benzo[d]oxazol-5-yl)propan-2-ol], the IC50 is below 100 nM.

As to `FC(F)(F)COC(c1cc(-c2nccs2)c2oc(N3CC4CCC(C3)N4)nc2c1)C(F)(F)F` (stereo not shown) [Example 146, 2-(3,8-Diazabicyclo[3.2.1]octan-3-yl)-7-(thiazol-2-yl)-5-(2,2,2-trifluoro-1-(2,2,2-trifluoroethoxy)ethyl)benzo[d]oxazole], the IC50 is below 100 nM.

On to `FC(F)(F)Oc1cc(-c2nccs2)c2oc(N3CC4CC(C3)N4)nc2c1` [Example 56, 2-(3,6-Diazabicyclo[3.1.1]heptan-3-yl)-7-(thiazol-2-yl)-5-(trifluoromethoxy)benzo[d]oxazole], for which the IC50 was below 100 nM.

As for `COC(c1ccc(-c2nccs2)c2oc(N3CC4CC(C3)N4)nc12)C(F)F` (stereo not shown) [Example 130, 2-(3,6-Diazabicyclo[3.1.1]heptan-3-yl)-4-(2,2-difluoro-1-methoxyethyl)-7-(thiazol-2-yl)benzo[d]oxazole], the IC50 was below 100 nM.

On to `OC(c1cc(-n2cccn2)c2oc(N3CC4CCC(C3)N4)nc2c1)C(F)(F)F` (stereo not shown) [Example 140, 1-(2-(3,8-Diazabicyclo[3.2.1]octan-3-yl)-7-(1H-pyrazol-1-yl)benzo[d]oxazol-5-yl)-2,2,2-trifluoroethan-1-ol], for which the IC50 was below 100 nM.

As to `COC(C)(c1cc(-c2nccs2)c2oc(N3CC4CCC(C3)N4)nc2c1)C(F)(F)F` (stereo not shown) [Example 102, 2-(3,8-Diazabicyclo[3.2.1]octan-3-yl)-7-(thiazol-2-yl)-5-(1,1,1-trifluoro-2-methoxypropan-2-yl)benzo[d]oxazole], the IC50 was below 100 nM.

Regarding `CCOC(=O)c1cc(-c2nccs2)c2oc(N3CC4CCC(C3)N4)nc2c1C(F)(F)F` [Example 163, Ethyl 2-(3,8-diazabicyclo[3.2.1]octan-3-yl)-7-(thiazol-2-yl)-4-(trifluoromethyl)benzo[d]oxazole-5-carboxylate], the IC50 was below 100 nM.

In the case of `O=C(c1cc(-c2nccs2)c2oc(N3CC4CCC(C3)N4)nc2c1)N1CCC1` [Example 97, (2-(3,8-Diazabicyclo[3.2.1]octan-3-yl)-7-(thiazol-2-yl)benzo[d]oxazol-5-yl)(azetidin-1-yl)methanone], the IC50 was below 100 nM.

Consider `FC(F)(F)c1cc(-c2nccs2)c2oc(N3CC4CCCC(C3)N4)nc2c1` [Example 53, 2-(3,9-Diazabicyclo[3.3.1]nonan-3-yl)-7-(thiazol-2-yl)-5-(trifluoromethyl)benzo[d]oxazole], for which the IC50 is below 100 nM.

Consider `OC(c1cc(-c2nccs2)c2oc(N3CC4CCC(C3)N4)nc2c1)C(F)(F)F` (racemic) [Example 137, 1-(2-(3,8-Diazabicyclo[3.2.1]octan-3-yl)-7-(thiazol-2-yl)benzo[d]oxazol-5-yl)-2,2,2-trifluoroethan-1-ol], for which the IC50 is below 100 nM.

With `c1csc(-c2cc(OCC3COC3)cc3nc(N4CC5CCC(C4)N5)oc23)n1` [Example 70, 2-(3,8-Diazabicyclo[3.2.1]octan-3-yl)-5-(oxetan-3-ylmethoxy)-7-(thiazol-2-yl)benzo[d]oxazole], the IC50 was below 100 nM.

For `CCOC(=O)c1ccc(-c2nccs2)c2oc(N3CC4CC(C3)N4)nc12` [Example 113, ethyl 2-(3,6-diazabicyclo[3.1.1]heptan-3-yl)-7-(thiazol-2-yl)benzo[d]oxazole-4-carboxylate], the IC50 is below 100 nM.

Take `O=C(c1ccc(-c2nccs2)c2oc(N3CC4CCC(C3)N4)nc12)N1CCCCC1` [Example 117, (2-(3,8-Diazabicyclo[3.2.1]octan-3-yl)-7-(thiazol-2-yl)benzo[d]oxazol-4-yl)(piperidin-1-yl)methanone]: the IC50 was below 100 nM.

For the compound `COC(c1ccc(-c2nccs2)c2oc(N3CC4CCC(C3)N4)nc12)C(F)F` (stereo not shown) [Example 131, 2-(3,8-Diazabicyclo[3.2.1]octan-3-yl)-4-(2,2-difluoro-1-methoxyethyl)-7-(thiazol-2-yl)benzo[d]oxazole], the IC50 is below 100 nM.

`CSc1cc(-c2nccs2)c2oc(N3CC4CC(C3)N4)nc2c1` [Example 40, 2-(3,6-Diazabicyclo[3.1.1]heptan-3-yl)-5-(methylthio)-7-(thiazol-2-yl)benzo[d]oxazole]: the IC50 is below 100 nM.

As to `C[S+]([O-])c1cc(-c2nccs2)c2oc(N3CC4CCCC(C3)N4)nc2c1` (stereo not shown) [Example 44, 2-(3,9-Diazabicyclo[3.3.1]nonan-3-yl)-5-(methylsulfinyl)-7-(thiazol-2-yl)benzo[d]oxazole], the IC50 was below 100 nM.

In the case of `COC(c1ccc(-c2nccs2)c2oc(N3CC4CC(C3)N4)nc12)C(F)(F)F` (stereo not shown) [Example 122, 2-(3,6-Diazabicyclo[3.1.1]heptan-3-yl)-7-(thiazol-2-yl)-4-(2,2,2-trifluoro-1-methoxyethyl)benzo[d]oxazole], the IC50 was below 100 nM.

Staying with this assay, now noted: scintillation proximity assay; read-out: PDE4 Inhibitory Activity (Evaluation 1; concentration for the inhibition rate of 50%).
For the compound `CN(C)S(=O)(=O)c1ccc(-c2nccs2)c2oc(N3CC4CC(C3)N4)nc12` [Example 388, 2-(3,6-Diazabicyclo[3.1.1]heptan-3-yl)-N,N-dimethyl-7-(thiazol-2-yl)benzo[d]oxazole-4-sulfonamide], the IC50 is below 100 nM.

In the case of `CC(O)c1ccc(-c2nccs2)c2oc(N3CC4CCCC(C3)N4)nc12` (stereo not shown) [Example 239, 1-(2-(3,9-Diazabicyclo[3.3.1]nonan-3-yl)-7-(thiazol-2-yl)benzo[d]oxazol-4-yl)ethan-1-ol], the IC50 was below 100 nM.

Regarding `OC(c1cc(-c2cscn2)c2oc(N3CC4CC(C3)N4)nc2c1OC(F)(F)F)C(F)F` (stereo not shown) [Example 300, 1-(2-(3,6-Diazabicyclo[3.1.1]heptan-3-yl)-7-(thiazol-4-yl)-4-(trifluoromethoxy)benzo[d]oxazol-5-yl)-2,2-difluoroethan-1-ol], the IC50 was below 100 nM.

On to `CCC(F)(F)Oc1ccc(-c2nccs2)c2oc(N3CC4CC(C3)N4)nc12` [Example 402, 2-(3,6-Diazabicyclo[3.1.1]heptan-3-yl)-4-(1,1-difluoropropoxy)-7-(thiazol-2-yl)benzo[d]oxazole], for which the IC50 was below 100 nM.

On to `CC(C)(O)c1cc(-c2nccs2)c2oc(N3CC4CC(C3)N4)nc2c1OC(F)(F)F` [Example 196, 2-(2-(3,6-Diazabicyclo[3.1.1]heptan-3-yl)-7-(thiazol-2-yl)-4-(trifluoromethoxy)benzo[d]oxazol-5-yl)propan-2-ol], for which the IC50 was below 100 nM.

`CC(C)C(O)C(F)(F)Oc1ccc(-c2nccs2)c2oc(N3CC4CC(C3)N4)nc12` (stereo not shown) [Example 362, 1-((2-(3,6-Diazabicyclo[3.1.1]heptan-3-yl)-7-(thiazol-2-yl)benzo[d]oxazol-4-yl)oxy)-1,1-difluoro-3-methylbutan-2-ol]: the IC50 is below 100 nM.

`COC(C)c1cc(-c2nccs2)c2oc(N3CC4CCC(C3)N4)nc2c1OC(F)(F)F` (stereo not shown) [Example 210, 2-(3,8-Diazabicyclo[3.2.1]octan-3-yl)-5-(1-methoxyethyl)-7-(thiazol-2-yl)-4-(trifluoromethoxy)benzo[d]oxazole]: the IC50 was below 100 nM.

Turning to `OC(c1ccc(-c2nccs2)c2oc(N3CC4CCC(C3)N4O)nc12)C(F)(F)F` (stereo not shown) [Example 379, 3-(7-(Thiazol-2-yl)-4-(2,2,2-trifluoro-1-hydroxyethyl)benzo[d]oxazol-2-yl)-3,8-diazabicyclo[3.2.1]octan-8-ol], the IC50 was below 100 nM.

As for `OC(c1cc(-c2nccs2)c2oc(N3CC4CCC(C3)N4)nc2c1OC(F)(F)F)C(F)F` (stereo not shown) [Example 275, 1-(2-(3,8-Diazabicyclo[3.2.1]octan-3-yl)-7-(thiazol-2-yl)-4-(trifluoromethoxy)benzo[d]oxazol-5-yl)-2,2-difluoroethan-1-ol], the IC50 was below 100 nM.

For the compound `COC1(c2cc(-c3nccs3)c3oc(N4CC5CC(C4)N5)nc3c2OC(F)(F)F)CC1` [Example 283, 2-(3,6-Diazabicyclo[3.1.1]heptan-3-yl)-5-(1-methoxycyclopropyl)-7-(thiazol-2-yl)-4-(trifluoromethoxy)benzo[d]oxazole], the IC50 is below 100 nM.

As for `CC(C)(CO)Oc1ccc(-c2nccs2)c2oc(N3CC4CC(C3)N4)nc12` [Example 268, 2-((2-(3,6-Diazabicyclo[3.1.1]heptan-3-yl)-7-(thiazol-2-yl)benzo[d]oxazol-4-yl)oxy)-2-methylpropan-1-ol], the IC50 is below 100 nM.

In the case of `OCC(F)(F)Oc1ccc(-c2cscn2)c2oc(N3CC4CC(C3)N4)nc12` [Example 311, 2-((2-(3,6-Diazabicyclo[3.1.1]heptan-3-yl)-7-(thiazol-4-yl)benzo[d]oxazol-4-yl)oxy)-2,2-difluoroethan-1-ol], the IC50 was below 100 nM.

For the origin of these results see US12239643B2, “Therapeutic agent for inflammatory diseases, autoimmune diseases, fibrotic diseases, and cancer diseases” (MEIJI SEIKA PHARMA CO., LTD., priority 2018, dated 2025).
